Blank lines part the entries; values can stand above or below the molecule they belong to.
Key:
[1] = logP determination by HPLC, reversed-phase column (C 18), acidic range; assay type: physicochemical; settings: pH 2.3, 0.1% aqueous phosphoric acid/acetonitrile, 43° C.
Protocol: The logP values given in the Preparation Examples were determined in accordance with EEC Directive 79/831 Annex V.A8 by HPLC (High Performance Liquid Chromatography) using a reversed-phase column (C 18). Temperature: 43° C. Mobile phases for the determination in the acidic range: 0.1% aqueous phosphoric acid, acetonitrile; linear gradient from 10% acetonitrile to 90% acetonitrile. Calibration was carried out using unbranched alkan-2-ones (having 3 to 16 carbon atoms) with known logP values (determination of the logP values by the retention times using linear interpolation between two successive […]).

Sphaerotheca fuliginea [2] = experiment: Sphaerotheca test (cucumber)/protective; assay type: in vivo; settings: Podosphaera fuliginea, 168 h; comparative experiment; application rate 500 ppm; read-out: Example A Spaerotheca test (cucumber) protective efficacy in %
Protocol: Sphaerotheca Test (Cucumber)/Protective
• Solvents: 24.5 parts by weight of acetone 24.5 parts by weight of dimethylacetamide • Emulsifier: 1 part by weight of alkylaryl polyglycol ether
(§1) To produce a suitable preparation of active compound, 1 part by weight of active compound is mixed with the stated amounts of solvent and emulsifier, and the concentrate is diluted with water to the desired concentration.
To test for protective activity, young plants are sprayed with the preparation of active compound at the stated application rate. After the spray coating has dried on, the plants are inoculated with an aqueous spore suspension of Sphaerotheca fuliginea. The plants are then placed in a greenhouse at about 23° C. and a relative atmospheric humidity of about 70%.
Evaluation is carried out 7 days after the inoculation. 0% means an efficacy which corresponds to that of the control, whereas an efficacy of 100% means that no infection is observed.
The compounds were tested in comparative experiments according to use examples A [Spaerotheca test (cucumber)/protective], D [Alternaria test (tomato)/protective] and E [Erysiphe test (barley)/protective].
In each case, the application rate was 500 ppm.

[3] = tested on: Erysiphe graminis f. sp. hordei; experiment: Erysiphe test (barley)/protective; assay type: in vivo; settings: Blumeria graminis, 168 h; comparative experiment; application rate 500 ppm; read-out: Example E Erysiphe test (barley) protective efficacy in %
Protocol: Erysiphe Test (Barley)/Protective • Solvent: 49 parts by weight of N,N-dimethylformamide • Emulsifier: 1 part by weight of alkylaryl polyglycol ether To produce a suitable preparation of active compound, 1 part by weight of active compound is mixed with the stated amounts of solvent and emulsifier, and the concentrate is diluted with water to the desired concentration. To test for protective activity, young cereal plants are sprayed with the preparation of active compound at the stated application rate. 1 day after the treatment, the plants are inoculated with spores of Erysiphe graminis f. sp. hordei. The plants are then placed in a greenhouse at 70% relative atmospheric humidity and a temperature of 18° C. Evaluation is carried out 7 days after the inoculation. 0% means an efficacy which corresponds to that of the control, whereas an efficacy of 100% means that no infection is observed. The compounds were tested in comparative experiments according to use examples A [Spaerotheca test (cucumber)/protective], D [Alternaria test (tomato)/protective] and E [Erysiphe test (barley)/protective]. In each case, the application rate was 500 ppm.

Alternaria solani = experiment: Alternaria test (tomato)/protective; assay type: in vivo; settings: 168 h, comparative experiment, application rate 500 ppm, read-out: Example D Alternaria test (tomato) protective efficacy in %
Protocol: Alternaria Test (Tomato)/Protective • Solvent: 49 parts by weight of N,N-dimethylformamide • Emulsifier: 1 part by weight of alkylaryl polyglycol ether To produce a suitable preparation of active compound, 1 part by weight of active compound is mixed with the stated amounts of solvent and emulsifier, and the concentrate is diluted with water to the desired concentration. To test for protective activity, young tomato plants are sprayed with the preparation of active compound at the stated application rate. 1 day after the treatment, the plants are inoculated with an aqueous spore suspension of Alternaria solani and then remain at 100% relative atmospheric humidity for 24 hours. The plants are then kept at about 96% relative atmospheric humidity and a temperature of 20° C. Evaluation is carried out 7 days after the inoculation. 0% means an efficacy which corresponds to that of the control, whereas an efficacy of 100% means that no infection is observed. The compounds were tested in comparative experiments according to use examples A [Spaerotheca test (cucumber)/protective], D [Alternaria test (tomato)/protective] and E [Erysiphe test (barley)/protective]. In each case, the application rate was 500 ppm.

Sphaerotheca fuliginea [4] = experiment: Sphaerotheca test (cucumber)/protective; assay type: in vivo; settings: protective, application rate 100 g/ha, evaluation 7 days after inoculation
Venturia inaequalis = experiment: Venturia test (apple)/protective; assay type: in vivo; settings: protective, application rate 100 g/ha, evaluation 10 days after inoculation
Protocol: Venturia Test (Apple)/Protective
• Solvents: 24.5 parts by weight of acetone 24.5 parts by weight of dimethylacetamide • Emulsifier: 1.0 part by weight of alkylaryl polyglycol ether
as §1
To test for protective activity, young plants are sprayed with the preparation of active compound at the stated application rate. After the spray coating has dried on, the plants are inoculated with an aqueous conidia suspension of the apple scab pathogen Venturia inaequalis and then remain in an incubation cabin at about 20° C. and 100% relative atmospheric humidity for 1 day.
The plants are then placed in a greenhouse at about 21° C. and a relative atmospheric humidity of about 90%.
Evaluation is carried out 10 days after the inoculation. 0% means an efficacy which corresponds to that of the control, whilst an efficacy of 100% means that no infection is observed.

Botrytis cinerea = experiment: Botrytis test (bean)/protective; assay type: in vivo; settings: protective, application rate 500 g/ha, evaluation 2 days after inoculation
Protocol: Botrytis Test (Bean)/Protective • Solvent: 49 parts by weight of N,N-dimethylformamide • Emulsifier: 1 part by weight of alkylaryl polyglycol ether To produce a suitable preparation of active compound, 1 part by weight of active compound is mixed with the stated amounts of solvent and emulsifier, and the concentrate is diluted with water to the desired concentration. To test for protective activity, young plants are sprayed with the preparation of active compound at the stated application rate. After the spray coating has dried on, 2 small pieces of agar colonized by Botrytis cinerea are placed onto each leaf. The inoculated plants are placed in a dark chamber at about 20° C. and 100% relative atmospheric humidity. 2 days after the inoculation, the size of the infected areas on the leaves is evaluated. 0% means an efficacy which corresponds to that of the control, whereas an efficacy of 100% means that no infection is observed.

Puccinia recondita = experiment: Puccinia test (wheat)/protective; assay type: in vivo; settings: 240 h, protective, application rate 500 g/ha, evaluation 10 days after inoculation, read-out: Efficacy in %
Protocol: Puccinia Test (Wheat)/Protective • Solvent: 25 parts by weight of N,N-dimethylacetamide • Emulsifier: 0.6 part by weight of alkylaryl polyglycol ether To produce a suitable preparation of active compound, 1 part by weight of active compound is mixed with the stated amounts of solvent and emulsifier, and the concentrate is diluted with water to the desired concentration. To test for protective activity, young plants are inoculated with a spore suspension of Puccinia recondita in a 0.1% strength aqueous agar solution. After the spray coating has dried on, the plants are sprayed with the preparation of active compound at the stated application rate. The plants remain in an incubation cabin at 20° C. and 100% relative atmospheric humidity for 24 hours. The plants are then placed in a greenhouse at a temperature of about 20° C. and a relative atmospheric humidity of 80% to promote the development of rust pustules. Evaluation is carried out 10 days after the inoculation. 0% means an efficacy which corresponds to that of the control, whereas an efficacy of 100% means that no infection is observed.

chromatographic logP [1]: 4.09
SMILES: CC(C)CC(C)c1ccccc1NC(=O)c1ccccc1C(F)(F)F (centres unmarked) [Example 2, N-[2-(1,3-dimethylbutyl)phenyl]-2-(trifluoromethyl)benzamide]
pest or weed control at 500 ppm (Sphaerotheca fuliginea [2]): 100%
pest or weed control at 500 ppm [3]: 90%
pest or weed control at 500 ppm (Alternaria solani): 95%

chromatographic logP [1]: 4.12
SMILES: CC(C)CC(C)c1ccccc1NC(=O)c1ccccc1I (centres unmarked) [Example 3, N-[2-(1,3-dimethylbutyl)phenyl]-2-iodobenzamide]
pest or weed control at 500 ppm (Sphaerotheca fuliginea [2]): 100%
pest or weed control at 500 ppm [3]: 95%
pest or weed control at 500 ppm (Alternaria solani): 95%

chromatographic logP [1]: 3.98
SMILES: CC(C)CC(C)c1ccccc1NC(=O)c1ccccc1Cl (centres unmarked) [Example 4, N-[2-(1,3-dimethylbutyl)phenyl]-2-chlorobenzamide]

chromatographic logP [1]: 4.01
SMILES: CC(C)CC(C)c1ccccc1NC(=O)c1ccccc1Br (centres unmarked) [Example 5, N-[2-(1,3-dimethylbutyl)phenyl]-2-bromobenzamide]
pest or weed control at 500 ppm (Sphaerotheca fuliginea [2]): 95%
pest or weed control at 500 ppm [3]: 30%
pest or weed control at 500 ppm (Alternaria solani): 90%

chromatographic logP [1]: 4.36
SMILES: CC(CC(C)(C)C)c1ccccc1NC(=O)c1ccccc1C(F)(F)F (centres unmarked) [Example 6, 2-(trifluoromethyl)-N-[2-(1,3,3-trimethylbutyl)phenyl]benzamide]

chromatographic logP [1]: 4.25
SMILES: CC(CC(C)(C)C)c1ccccc1NC(=O)c1ccccc1Cl (centres unmarked) [Example 7, 2-chloro-N-[2-(1,3,3-trimethylbutyl)phenyl]benzamide]

chromatographic logP [1]: 4.29
SMILES: CC(CC(C)(C)C)c1ccccc1NC(=O)c1ccccc1Br (centres unmarked) [Example 8, 2-bromo-N-[2-(1,3,3-trimethylbutyl)phenyl]benzamide]

chromatographic logP [1]: 4.4
SMILES: CC(CC(C)(C)C)c1ccccc1NC(=O)c1ccccc1I (centres unmarked) [Example 9, 2-iodo-N-[2-(1,3,3-trimethylbutyl)phenyl]benzamide]

chromatographic logP [1]: 4.71
SMILES: CCC(C)(C)CC(C)c1ccccc1NC(=O)c1ccccc1I (centres unmarked) [Example 10, (2-iodophenyl)-N-[2-(1,3,3-trimethylpentyl)phenyl]carboxamide]

chromatographic logP [1]: 4.68
SMILES: CCC(C)(C)CC(C)c1ccccc1NC(=O)c1ccccc1C(F)(F)F (centres unmarked) [Example 11, [2-(trifluoromethyl)phenyl]-N-[2-(1,3,3-trimethylpentyl)phenyl]carboxamide]

chromatographic logP [1]: 4.6
SMILES: CCC(C)(C)CC(C)c1ccccc1NC(=O)c1ccccc1Cl (centres unmarked) [Example 12, (2-chlorophenyl)-N-[2-(1,3,3-trimethylpentyl)phenyl]carboxamide]

chromatographic logP [1]: 4.63
SMILES: CCC(C)(C)CC(C)c1ccccc1NC(=O)c1ccccc1Br (centres unmarked) [Example 13, (2-bromophenyl)-N-[2-(1,3,3-trimethylpentyl)phenyl]carboxamide]

SMILES: CCCCc1ccccc1NC(=O)c1ccccc1I [No.14.3(p. 42)]
pest or weed control at 500 ppm (Sphaerotheca fuliginea [2]): 0%
pest or weed control at 500 ppm [3]: 0%
pest or weed control at 500 ppm (Alternaria solani): 0%

SMILES: CCC(C)c1ccccc1NC(=O)c1ccccc1I (centres unmarked) [No.14.4(p. 42)]
pest or weed control at 500 ppm (Sphaerotheca fuliginea [2]): 10%
pest or weed control at 500 ppm [3]: 20%
pest or weed control at 500 ppm (Alternaria solani): 10%

SMILES: CCCCCCc1ccccc1NC(=O)c1ccccc1I [No.14.9(p. 42)]
pest or weed control at 500 ppm (Sphaerotheca fuliginea [2]): 0%
pest or weed control at 500 ppm [3]: 0%
pest or weed control at 500 ppm (Alternaria solani): 0%

SMILES: CCCCc1ccccc1NC(=O)c1ccccc1C(F)(F)F [No. 6.3(p. 24)]
pest or weed control at 500 ppm (Sphaerotheca fuliginea [2]): 10%
pest or weed control at 500 ppm [3]: 10%
pest or weed control at 500 ppm (Alternaria solani): 0%

SMILES: CCC(C)c1ccccc1NC(=O)c1ccccc1C(F)(F)F (centres unmarked) [No. 6.4(p. 24)]
pest or weed control at 500 ppm (Sphaerotheca fuliginea [2]): 30%
pest or weed control at 500 ppm [3]: 0%
pest or weed control at 500 ppm (Alternaria solani): 30%

SMILES: CCCCCCc1ccccc1NC(=O)c1ccccc1C(F)(F)F [No. 6.9(p. 24)]
pest or weed control at 500 ppm (Sphaerotheca fuliginea [2]): 0%
pest or weed control at 500 ppm [3]: 0%
pest or weed control at 500 ppm (Alternaria solani): 0%

SMILES: CC(C)CC(C)c1ccccc1NC(=O)c1ccccc1C(F)(F)F (centres unmarked) [drawing 10]
Efficacy in % (Sphaerotheca fuliginea [4]): 100%

SMILES: CC(C)CC(C)c1ccccc1NC(=O)c1ccccc1I (centres unmarked) [drawing 11]
Efficacy in % (Sphaerotheca fuliginea [4]): 100%

SMILES: CC(C)CC(C)c1ccccc1NC(=O)c1ccccc1C(F)(F)F (centres unmarked) [drawing 12]
Efficacy in % (Venturia inaequalis): 100%

SMILES: CC(C)CC(C)c1ccccc1NC(=O)c1ccccc1I (centres unmarked) [drawing 13]
Efficacy in % (Venturia inaequalis): 100%

SMILES: CC(C)CC(C)c1ccccc1NC(=O)c1ccccc1C(F)(F)F (centres unmarked) [drawing 14]
Efficacy in % (Botrytis cinerea): 93%

SMILES: CC(C)CC(C)c1ccccc1NC(=O)c1ccccc1C(F)(F)F (centres unmarked) [drawing 20]
pest or weed control at 500 g/ha (Puccinia recondita): 100%

SMILES: CC(C)CC(C)c1ccccc1NC(=O)c1ccccc1I (centres unmarked) [drawing 21]
pest or weed control at 500 g/ha (Puccinia recondita): 100%

SMILES: CC(C)CC(C)c1ccccc1NC(=O)c1ccccc1Br (centres unmarked) [drawing 22]
pest or weed control at 500 g/ha (Puccinia recondita): 100%

SMILES: CC(C)CC(C)c1ccccc1NC(=O)c1ccccc1Cl (centres unmarked) [drawing 23]
pest or weed control at 500 g/ha (Puccinia recondita): 100%

SMILES: CC(CC(C)(C)C)c1ccccc1NC(=O)c1ccccc1Br (centres unmarked) [drawing 24]
pest or weed control at 500 g/ha (Puccinia recondita): 100%

SMILES: CC(CC(C)(C)C)c1ccccc1NC(=O)c1ccccc1Cl (centres unmarked) [drawing 25]
pest or weed control at 500 g/ha (Puccinia recondita): 100%

SMILES: CCC(C)(C)CC(C)c1ccccc1NC(=O)c1ccccc1C(F)(F)F (centres unmarked) [drawing 26]
pest or weed control at 500 g/ha (Puccinia recondita): 100%

SMILES: CC(CC(C)(C)C)c1ccccc1NC(=O)c1ccccc1C(F)(F)F (centres unmarked) [drawing 27]
pest or weed control at 500 g/ha (Puccinia recondita): 100%

SMILES: CC(CC(C)(C)C)c1ccccc1NC(=O)c1ccccc1I (centres unmarked) [drawing 28]
pest or weed control at 500 g/ha (Puccinia recondita): 100%
